Reference: ChEMBL document CHEMBL1743341, “Cytochrome p450 enzymes mechanism based inhibitors: common sub-structures and reactivity” (Curr Drug Metab, 2005)
One block for each compound: values may come before it.

Assays:
Format in all cases: ADME
Cytochrome P450 2B4 [1] = molecular target: T1, Cytochrome P450 2B4 (Oryctolagus cuniculus, UniProt P00178); assay: Mechanism based inhibition of rabbit cytochrome P450 CYP2B4 partition ratio
T1 sequence (P00178 whole entry): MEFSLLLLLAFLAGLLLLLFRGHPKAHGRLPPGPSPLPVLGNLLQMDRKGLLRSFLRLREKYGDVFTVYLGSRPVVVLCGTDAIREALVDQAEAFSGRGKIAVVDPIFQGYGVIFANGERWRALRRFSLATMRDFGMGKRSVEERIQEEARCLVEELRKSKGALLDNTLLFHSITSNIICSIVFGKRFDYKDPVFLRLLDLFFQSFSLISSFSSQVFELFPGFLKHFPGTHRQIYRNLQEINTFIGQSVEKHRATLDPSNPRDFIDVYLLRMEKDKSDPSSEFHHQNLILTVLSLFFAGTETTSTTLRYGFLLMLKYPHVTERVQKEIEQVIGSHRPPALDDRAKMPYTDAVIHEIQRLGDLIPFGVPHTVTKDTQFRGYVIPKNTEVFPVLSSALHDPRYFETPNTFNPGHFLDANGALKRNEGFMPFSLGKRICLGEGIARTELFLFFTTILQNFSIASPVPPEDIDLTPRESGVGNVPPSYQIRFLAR

CYP2B4 = molecular target: T2, CYP2B4 (Oryctolagus cuniculus, UniProt P00178); assay: (§1) Mechanism based inhibition of rabbit cytochrome P450 CYP2B4 1-Phenylethanol oxidation was used as probe activity; conditions: rabbit, probe 1-phenylethanol (oxidation)
T2 sequence (P00178 whole entry): T1 sequence (P00178 whole entry)

Cytochrome P450 2B4 [2] = molecular target: T1, Cytochrome P450 2B4; assay: as §1
Cytochrome P450 2C5 = Cytochrome P450 2C5 (Oryctolagus cuniculus, UniProt P00179); assay: Mechanism based inhibition of rabbit cytochrome P450 CYP2C5
Cytochrome P450 2C5, sequence (P00179 whole entry): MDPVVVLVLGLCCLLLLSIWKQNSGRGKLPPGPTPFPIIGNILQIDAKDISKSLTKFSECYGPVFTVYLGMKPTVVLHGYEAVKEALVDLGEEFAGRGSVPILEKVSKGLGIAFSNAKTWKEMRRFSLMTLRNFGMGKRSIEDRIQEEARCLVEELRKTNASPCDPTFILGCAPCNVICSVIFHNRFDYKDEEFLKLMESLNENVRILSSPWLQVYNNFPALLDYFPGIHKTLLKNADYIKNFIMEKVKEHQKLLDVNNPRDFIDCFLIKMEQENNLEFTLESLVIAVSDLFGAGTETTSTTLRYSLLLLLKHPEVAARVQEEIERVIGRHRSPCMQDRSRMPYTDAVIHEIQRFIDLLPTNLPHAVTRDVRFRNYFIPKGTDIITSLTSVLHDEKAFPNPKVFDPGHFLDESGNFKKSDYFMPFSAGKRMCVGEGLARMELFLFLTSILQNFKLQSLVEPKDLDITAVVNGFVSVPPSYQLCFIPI

[3] = molecular target: Cholesterol side-chain cleavage enzyme, mitochondrial (Bos taurus, UniProt P00189); assay: Mechanism based inhibition of bovine cytochrome P450 CYP11A1; conditions: cattle
Cholesterol side-chain cleavage enzyme, mitochondrial, sequence (P00189 whole entry): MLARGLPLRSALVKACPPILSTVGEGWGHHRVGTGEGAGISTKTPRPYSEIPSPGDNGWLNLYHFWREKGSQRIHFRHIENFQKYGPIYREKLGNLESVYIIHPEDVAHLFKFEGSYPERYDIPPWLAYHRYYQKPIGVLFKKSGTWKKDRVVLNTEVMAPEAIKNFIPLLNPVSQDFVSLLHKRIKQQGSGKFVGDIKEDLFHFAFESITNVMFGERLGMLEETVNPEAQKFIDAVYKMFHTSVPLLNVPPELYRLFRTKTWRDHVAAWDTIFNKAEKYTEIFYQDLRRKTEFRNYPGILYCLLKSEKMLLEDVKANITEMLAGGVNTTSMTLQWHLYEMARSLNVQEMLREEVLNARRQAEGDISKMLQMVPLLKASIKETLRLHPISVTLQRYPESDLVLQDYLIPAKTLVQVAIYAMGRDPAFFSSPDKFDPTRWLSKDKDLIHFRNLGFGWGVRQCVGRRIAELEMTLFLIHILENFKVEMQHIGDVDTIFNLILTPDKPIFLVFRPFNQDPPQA

Cytochrome P450 1A2 = molecular target: T3, Cytochrome P450 1A2 (Rattus norvegicus, UniProt P04799); assay: (§2) Mechanism based inhibition of rat cytochrome P450 CYP1A2 measured by zolmitriptan metabolism
T3 sequence (P04799 whole entry): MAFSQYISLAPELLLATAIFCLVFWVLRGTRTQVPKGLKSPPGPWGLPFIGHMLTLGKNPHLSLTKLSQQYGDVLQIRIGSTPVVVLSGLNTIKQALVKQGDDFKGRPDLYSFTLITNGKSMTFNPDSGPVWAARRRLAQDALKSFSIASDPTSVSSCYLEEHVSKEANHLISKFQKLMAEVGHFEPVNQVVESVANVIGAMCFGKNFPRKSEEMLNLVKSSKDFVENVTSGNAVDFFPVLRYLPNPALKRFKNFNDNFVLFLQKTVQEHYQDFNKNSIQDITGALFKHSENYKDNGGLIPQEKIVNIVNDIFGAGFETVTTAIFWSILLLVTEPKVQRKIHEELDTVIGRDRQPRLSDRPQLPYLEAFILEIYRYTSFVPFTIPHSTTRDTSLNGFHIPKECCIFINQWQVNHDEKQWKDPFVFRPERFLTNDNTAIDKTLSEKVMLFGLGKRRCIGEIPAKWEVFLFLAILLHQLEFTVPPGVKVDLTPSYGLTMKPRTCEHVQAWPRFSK

CYP1A2 = molecular target: T4, CYP1A2 (Rattus norvegicus, UniProt P04799); assay: as §2; conditions: rat, probe zolmitriptan (metabolism)
T4 sequence (P04799 whole entry): T3 sequence (P04799 whole entry)

Cytochrome P450 3A4 = Cytochrome P450 3A4 (Homo sapiens, UniProt P08684); assay: (§3) Mechanism based inhibition of human cytochrome P450 CYP3A4 measured by 7BFC O-debenzylation
Cytochrome P450 3A4, sequence (P08684 whole entry): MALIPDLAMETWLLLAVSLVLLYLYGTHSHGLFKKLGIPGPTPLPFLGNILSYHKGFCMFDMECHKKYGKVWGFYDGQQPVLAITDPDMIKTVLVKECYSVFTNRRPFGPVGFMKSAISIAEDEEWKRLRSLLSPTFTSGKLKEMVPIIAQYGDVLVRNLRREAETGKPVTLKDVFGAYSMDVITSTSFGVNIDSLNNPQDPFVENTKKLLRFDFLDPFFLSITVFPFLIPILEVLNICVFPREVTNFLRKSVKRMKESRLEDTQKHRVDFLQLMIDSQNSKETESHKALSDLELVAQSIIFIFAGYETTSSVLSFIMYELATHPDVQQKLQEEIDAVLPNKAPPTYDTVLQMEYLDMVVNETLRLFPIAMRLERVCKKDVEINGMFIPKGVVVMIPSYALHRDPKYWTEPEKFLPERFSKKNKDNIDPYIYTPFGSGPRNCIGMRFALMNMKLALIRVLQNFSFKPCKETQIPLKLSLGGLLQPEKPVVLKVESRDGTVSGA

CYP3A4 = CYP3A4 (Homo sapiens, UniProt P08684); assay: as §3; conditions: human, probe 7BFC (O-debenzylation)
CYP3A4, sequence (P08684 whole entry): as above

CYP2B6 = molecular target: T5, CYP2B6 (Homo sapiens, UniProt P20813); assay: Mechanism based inhibition of human cytochrome P450 CYP2B6 measured by 7-EFC O-deethylation activity; conditions: probe 7-EFC (O-deethylation)
T5 sequence (P20813 whole entry): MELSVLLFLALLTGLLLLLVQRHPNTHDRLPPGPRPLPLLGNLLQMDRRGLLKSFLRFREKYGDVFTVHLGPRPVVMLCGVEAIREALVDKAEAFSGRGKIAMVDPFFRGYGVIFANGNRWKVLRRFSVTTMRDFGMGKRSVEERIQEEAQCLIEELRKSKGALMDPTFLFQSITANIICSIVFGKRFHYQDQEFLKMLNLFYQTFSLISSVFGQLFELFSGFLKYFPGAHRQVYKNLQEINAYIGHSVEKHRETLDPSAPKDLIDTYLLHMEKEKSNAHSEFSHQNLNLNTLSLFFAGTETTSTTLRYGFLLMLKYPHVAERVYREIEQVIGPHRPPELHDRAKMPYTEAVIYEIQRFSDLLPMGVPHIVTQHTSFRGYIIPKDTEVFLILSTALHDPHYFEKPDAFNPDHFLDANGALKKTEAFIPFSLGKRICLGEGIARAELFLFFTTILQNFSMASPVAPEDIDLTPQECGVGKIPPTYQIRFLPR

Cytochrome P450 2C11 = molecular target: T6, Cytochrome P450 2C11 (Rattus norvegicus, UniProt P08683); assay: Mechanism based inhibition of rat cytochrome P450 CYP2C11 measured by testosterone hydroxylation at positions 2-alpha and 16-alpha
T6 sequence (P08683 whole entry): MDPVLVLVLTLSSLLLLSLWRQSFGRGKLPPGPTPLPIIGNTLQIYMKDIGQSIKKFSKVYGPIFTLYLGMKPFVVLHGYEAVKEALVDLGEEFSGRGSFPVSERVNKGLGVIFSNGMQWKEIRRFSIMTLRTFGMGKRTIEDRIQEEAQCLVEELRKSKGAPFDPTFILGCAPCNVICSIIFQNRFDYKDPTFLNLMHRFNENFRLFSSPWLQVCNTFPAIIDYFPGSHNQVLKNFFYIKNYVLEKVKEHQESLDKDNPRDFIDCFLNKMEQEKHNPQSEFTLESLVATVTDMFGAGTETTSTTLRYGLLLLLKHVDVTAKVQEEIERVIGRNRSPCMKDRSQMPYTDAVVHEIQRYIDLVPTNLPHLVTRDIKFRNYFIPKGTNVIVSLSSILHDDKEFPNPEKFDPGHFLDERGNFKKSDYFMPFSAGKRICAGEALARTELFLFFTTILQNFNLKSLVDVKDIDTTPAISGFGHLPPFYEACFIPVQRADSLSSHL

Cytochrome P450 3A2 = Cytochrome P450 3A2 (Rattus norvegicus, UniProt P05183); assay: Mechanism based inhibition of rat cytochrome P450 CYP3A2 measured by testosterone hydroxylation at positions 2-beta and 6-beta
Cytochrome P450 3A2, sequence (P05183 whole entry): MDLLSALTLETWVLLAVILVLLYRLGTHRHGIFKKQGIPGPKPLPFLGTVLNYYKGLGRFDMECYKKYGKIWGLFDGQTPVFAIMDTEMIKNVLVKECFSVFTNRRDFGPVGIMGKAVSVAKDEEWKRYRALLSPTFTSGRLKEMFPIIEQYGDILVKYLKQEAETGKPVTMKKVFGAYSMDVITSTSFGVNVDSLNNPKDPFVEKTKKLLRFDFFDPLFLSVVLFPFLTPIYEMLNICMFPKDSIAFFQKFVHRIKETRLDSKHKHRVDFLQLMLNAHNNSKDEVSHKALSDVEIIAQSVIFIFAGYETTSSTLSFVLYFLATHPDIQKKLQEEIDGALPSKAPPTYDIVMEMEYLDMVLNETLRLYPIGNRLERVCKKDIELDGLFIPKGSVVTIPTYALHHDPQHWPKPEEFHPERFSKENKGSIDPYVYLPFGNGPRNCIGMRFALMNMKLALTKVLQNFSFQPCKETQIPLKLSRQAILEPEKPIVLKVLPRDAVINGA

partition_ratio (Cytochrome P450 2B4 [1]): 2100
kinact (CYP2B4): 0.000667 s⁻¹
Ki (Cytochrome P450 2B4 [2]): 2000 µM
SMILES: COC(=O)c1csc2snnc12

SMILES: C[C@]12CC[C@H]3[C@@H](CC=C4C[C@@H](O)CC[C@@]43C)[C@@H]1CC[C@@H]2C(=O)C(Cl)Cl
mechanism based inhibition (Cytochrome P450 2C5): Cytochrome P450 mechanistic inhibitor: PMID 9168258

SMILES: CC(C)CCS[C@@H](C)[C@H]1CC[C@H]2[C@@H]3CC=C4C[C@@H](O)CC[C@]4(C)[C@H]3CC[C@]12C
mechanism based inhibition [3]: Cytochrome P450 mechanistic inhibitor: PMID 7599132

Ki (Cytochrome P450 1A2): 57.4 µM
kinact (CYP1A2): 0.00267 s⁻¹
SMILES: COCCCC/C(=N\OCCN)c1ccc(C(F)(F)F)cc1 [FLUVOXAMINE]

Ki (Cytochrome P450 3A4): 7 µM
kinact (CYP3A4): 0.00233 s⁻¹
kinact (CYP2B6): 0.00133 s⁻¹
SMILES: CC1(C)C=Cc2c(ccc3c2OC[C@@H](c2ccc(O)cc2O)C3)O1 [GLABRIDIN]

SMILES: [N]=O [NITRIC OXIDE]
mechanism based inhibition (Cytochrome P450 2C11): Cytochrome P450 mechanistic inhibitor: PMID 9400024
mechanism based inhibition (Cytochrome P450 3A2): Cytochrome P450 mechanistic inhibitor: PMID 9400024
